Where two headings read alike, the source gives them in different places.
Legend:
STAT6 = target: T1, STAT6 (Homo sapiens, UniProt P42226); assay: STAT6 Reporter Luciferase Assay (IL-13 stimulated HaCaT keratinocyte NanoLuc reporter cells); type: cell-based; settings: read-out: Reporter EC50
T1 construct: stably transfected HaCaT keratinocyte cell line, which expresses NanoLuc luciferase reporter gene under the transcriptional control of the STAT6 responsive promoter; endogenous in cells; host or cells: HaCaT keratinocyte reporter cell line (stably transfected with a NanoLuc reporter)
T1 sequence (P42226 1-847): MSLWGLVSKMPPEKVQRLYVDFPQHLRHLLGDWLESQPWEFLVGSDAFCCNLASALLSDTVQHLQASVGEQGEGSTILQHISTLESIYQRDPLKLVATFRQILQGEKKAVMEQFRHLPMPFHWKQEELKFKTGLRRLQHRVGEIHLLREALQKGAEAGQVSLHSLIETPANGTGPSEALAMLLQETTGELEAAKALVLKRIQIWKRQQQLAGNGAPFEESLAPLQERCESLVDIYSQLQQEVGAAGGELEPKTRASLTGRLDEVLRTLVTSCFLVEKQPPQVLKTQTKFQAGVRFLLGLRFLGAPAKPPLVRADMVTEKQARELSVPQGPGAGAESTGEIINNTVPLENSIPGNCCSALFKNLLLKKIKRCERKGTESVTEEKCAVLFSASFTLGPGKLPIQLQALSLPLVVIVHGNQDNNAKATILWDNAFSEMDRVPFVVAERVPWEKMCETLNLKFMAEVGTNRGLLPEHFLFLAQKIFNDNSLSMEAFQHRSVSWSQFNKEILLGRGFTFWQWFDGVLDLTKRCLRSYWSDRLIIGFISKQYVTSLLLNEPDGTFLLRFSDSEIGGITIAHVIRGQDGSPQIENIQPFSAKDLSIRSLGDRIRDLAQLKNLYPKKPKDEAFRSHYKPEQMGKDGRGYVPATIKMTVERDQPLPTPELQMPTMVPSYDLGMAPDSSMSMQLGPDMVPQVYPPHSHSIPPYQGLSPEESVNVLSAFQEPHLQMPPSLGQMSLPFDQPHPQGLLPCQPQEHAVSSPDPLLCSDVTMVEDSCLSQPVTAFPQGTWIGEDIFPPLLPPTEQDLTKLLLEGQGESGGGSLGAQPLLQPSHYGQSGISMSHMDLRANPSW
Method in brief: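 Cells were plated overnight, washed, exposed to compound for two hours, stimulated with IL-13 (0.12 nM final) for four hours at 37 °C, and then lysed with Nano-Glo substrate for 15 min before luminescence reading.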

[1] = tested on: CCL17 secretion in peripheral human whole blood; assay: Human Whole Blood (HWB) CCL17 TR-FRET Assay (IL-13 stimulated CCL17 secretion); type: cell-based
Method in brief: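 IC50 comes from serum CCL17 measured by a TR-FRET sandwich assay (16 h at room temperature, 665/615 nm ratio). Beforehand, blood in sodium heparin was exposed to an 11-point, 3-fold compound series for 2 h at 37°C and then to 10 ng/mL IL-13 for 48 h.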

[2] = IL-13 stimulated HaCaT STAT6 NanoLuc reporter cells
[3] = Homo sapiens, 48 h, human whole blood, 10 ng/mL IL13, 48 hours
[4] = Homo sapiens, 48 h, human whole blood, IL-13 stimulated
[5] = human whole blood, IL-13 stimulated, 48 hours
[6] = STAT6 NanoLuc luciferase reporter, IL-13 stimulated HaCaT keratinocyte cells
[7] = Homo sapiens, 48 h, inhibition of CCL17 secretion in human whole blood, 10 ng/mL IL13, 48 hours

| Structure (SMILES) | EC50 (STAT6; [2]) | IC50 [1, 3] | further results |
| --- | --- | --- | --- |
| CC(C)n1nc(C(=O)NCc2ccc(NC(=O)N3CCC4(CCNCC4)CC3)cc2)c2c1[C@@H](C)CN(c1ccc(C(=O)N(C)C)cc1)C2 [Example 625, (S)-N-(4-((5-(4-(dimethylcarbamoyl)phenyl)-1-isopropyl-7-methyl-4,5,6,7-tetrahydro-1H-pyrazolo[4,3-c]pyridine-3-carboxamido)methyl)phenyl)-3,9-diazaspiro[5.5]undecane-3-carboxamide] | 10 nM | 24 nM | – |
| COc1ccc2c(n1)CN(C(=O)c1ccc(N3CCc4c(c(C(=O)NCc5ccc(NC(=O)N(C)C)cc5)nn4C(C)C)C3)nc1)CC2 [Example 443, N-(4-(3,3-dimethylureido)benzyl)-1-isopropyl-5-(5-(2-methoxy-5,6,7,8-tetrahydro-1,7-naphthyridine-7-carbonyl)pyridin-2-yl)-4,5,6,7-tetrahydro-1H-pyrazolo[4,3-c]pyridine-3-carboxamide] | 11 nM | – | IC50 [1, 4]: 878 nM |
| CC(CC#N)n1nc(C(=O)NCc2ccc(NC(=O)N(C)C)cc2)c2c1CCN(c1ccc(C(=O)N(C)C)cn1)C2 (single isomer, unassigned) [Example 347, rel-(R or S)-1-(1-cyanopropan-2-yl)-5-(5-(dimethylcarbamoyl)pyridin-2-yl)-N-(4-(3,3-dimethylureido)benzyl)-4,5,6,7-tetrahydro-1H-pyrazolo[4,3-c]pyridine-3-carboxamide] | 83 nM | – | IC50 [1, 5]: 127 nM |
| CC1CN(c2ccc(-c3nccn3C)cn2)Cc2c(C(=O)NCc3ccc(NC(=O)N(C)C)cc3)nn(C)c21 (racemic) [Example 59, rac-(R)-N-(4-(3,3-dimethylureido)benzyl)-1,7-dimethyl-5-(5-(1-methyl-1H-imidazol-2-yl)pyridin-2-yl)-4,5,6,7-tetrahydro-1H-pyrazolo[4,3-c]pyridine-3-carboxamide] | – | – | EC50 (STAT6; [6]): 3 nM; IC50 [1, 7]: 27 nM |
| CN(C)C(=O)Nc1ccc(CNC(=O)c2nnn3c2CN(c2ccc(C(=O)N(C)C)cn2)CC3)cc1 [Example 24, 5-(5-(dimethylcarbamoyl)pyridin-2-yl)-N-(4-(3,3-dimethylureido)benzyl)-4,5,6,7-tetrahydro-[1,2,3]triazolo[1,5-a]pyrazine-3-carboxamide] | – | – | EC50 (STAT6; [6]): 384 nM; IC50 [1, 7]: 346 nM |
| CCC1CN(c2ccc(C(=O)N(C)C)cn2)Cc2c(C(=O)NCc3ccc(NC(=O)N(C)C)cc3)nn(C(C)C)c21 (single isomer, unassigned) [Example 310, rel-(R or S)-5-(5-(dimethylcarbamoyl)pyridin-2-yl)-N-(4-(3,3-dimethylureido)benzyl)-7-ethyl-1-isopropyl-4,5,6,7-tetrahydro-1H-pyrazolo[4,3-c]pyridine-3-carboxamide] | 8 nM | – | IC50 [1, 5]: 115 nM |
| CC(C)c1nc(C(=O)NCc2ccc(NC(=O)N(C)C)cc2)c2n1[C@@H](C)CN(c1ccc(C(=O)N(C)C)cc1)C2 (racemic) [Example 537, rac-(R)-7-(4-(Dimethylcarbamoyl)phenyl)-N-(4-(3,3-dimethylureido)benzyl)-3-isopropyl-5-methyl-5,6,7,8-tetrahydroimidazo[1,5-a]pyrazine-1-carboxamide] | 1 nM | 10 nM | – |
| CNC1(C)CCN(C(=O)Nc2ccc(CNC(=O)c3nn(C(C)C)c4c3CN(c3ccc(C(=O)N(C)C)cc3)C[C@@H]4C)cc2)C1 (single isomer, unassigned) [Example 713, (S)-5-(4-(dimethylcarbamoyl)phenyl)-1-isopropyl-7-methyl-N-(4-((R*)-3-methyl-3-(methylamino)pyrrolidine-1-carboxamido)benzyl)-4,5,6,7-tetrahydro-1H-pyrazolo[4,3-c]pyridine-3-carboxamide] | 3 nM | – | IC50 ([1]; Homo sapiens, 48 h, human whole blood, IL-13 10 ng/mL): 22 nM |
| CC1CN(c2ncc(C(=O)N(C)C)cn2)Cc2c(C(=O)NCc3ccc(NC(=O)N(C)C)cc3)nn(C(C)C)c21 (racemic) [Example 532, rac-(R)-5-(5-(dimethylcarbamoyl)pyrimidin-2-yl)-N-(4-(3,3-dimethylureido)benzyl)-1-isopropyl-7-methyl-4,5,6,7-tetrahydro-1H-pyrazolo[4,3-c]pyridine-3-carboxamide] | 1 nM | 4 nM | – |
| CN(C)C(=O)Nc1ccc(CN2CCn3nc4c(c3C2=O)CN(c2ccc(C(=O)N(C)C)cn2)CC4)cc1 [Example 256, 6-(9-(4-(3,3-dimethylureido)benzyl)-10-oxo-3,4,7,8,9,10-hexahydropyrido[4′,3′:3,4]pyrazolo[1,5-a]pyrazin-2(1H)-yl)-N,N-dimethylnicotinamide] | 28 nM | – | IC50 [1, 4]: 190 nM |
| CNC(=O)c1ccc(CNC(=O)c2nn(C(C)C)c3c2CN(c2ccc(C(=O)N(C)C)cn2)[C@@H](C)C3)cc1 [Example 540, (S)-5-(5-(dimethylcarbamoyl)pyridin-2-yl)-1-isopropyl-6-methyl-N-(4-(methylcarbamoyl)benzyl)-4,5,6,7-tetrahydro-1H-pyrazolo[4,3-c]pyridine-3-carboxamide] | 27 nM | 76 nM | – |
| CCn1nc(C(=O)NCc2ccc(C(=O)NC)cc2)c2c1C(C(F)(F)F)CN(c1ccc(C(=O)N(C)C)cn1)C2 (single isomer, unassigned) [Example 468, rel-(R or S)-5-(5-(dimethylcarbamoyl)pyridin-2-yl)-1-ethyl-N-(4-(methylcarbamoyl)benzyl)-7-(trifluoromethyl)-4,5,6,7-tetrahydro-1H-pyrazolo[4,3-c]pyridine-3-carboxamide] | 2.2 nM | – | IC50 [1, 5]: 12 nM |
| CN(C)C(=O)Nc1ccc(CNC(=O)c2nn(C3(C)CC3)c3c2CN(c2ccc(C(=O)N(C)C)cn2)CC3)cc1 [Example 20, 5-(5-(dimethylcarbamoyl)pyridin-2-yl)-N-(4-(3,3-dimethylureido)benzyl)-1-(1-methylcyclopropyl)-4,5,6,7-tetrahydro-1H-pyrazolo[4,3-c]pyridine-3-carboxamide] | – | – | EC50 (STAT6; [6]): 6 nM; IC50 [1, 7]: 72 nM |
| CCn1nc(C(=O)NCc2ccc(NC(=O)N(C)C)cc2)c2c1C[C@@H](C)N(c1ccc(C(=O)N(C)C)cn1)C2 (single isomer, unassigned) [Example 113] | – | – | EC50 (STAT6; [6]): 17 nM; IC50 [1, 7]: 161 nM |
| CC(C)n1nc(C(=O)NCc2ccc(NC(=O)N3CCN(C)CC3)cc2)c2c1[C@@H](C)CN(c1ccc(-n3nccn3)cn1)C2 [Example 631, (S)-5-(5-(2H-1,2,3-triazol-2-yl)pyridin-2-yl)-1-isopropyl-7-methyl-N-(4-(4-methylpiperazine-1-carboxamido)benzyl)-4,5,6,7-tetrahydro-1H-pyrazolo[4,3-c]pyridine-3-carboxamide] | 1 nM | 24 nM | – |
| CCC(C)n1nc(C(=O)NCc2ccc(NC(=O)N(C)C)cc2)c2c1CCN(c1ccc(C(=O)N(C)C)cn1)C2 (racemic) [Example 85, rac-(R)-1-(sec-butyl)-5-(5-(dimethylcarbamoyl)pyridin-2-yl)-N-(4-(3,3-dimethylureido)benzyl)-4,5,6,7-tetrahydro-1H-pyrazolo[4,3-c]pyridine-3-carboxamide] | – | – | EC50 (STAT6; [6]): 6 nM; IC50 [1, 7]: 90 nM |
| CC(C)c1nc(C(=O)NCc2ccc(NC(=O)N(C)C)cc2)c2n1C(C)CN(c1ccc(C(=O)N(C)C)cc1)C2 (single isomer, unassigned) [Example 539, rel-(R or S)-7-(4-(Dimethylcarbamoyl)phenyl)-N-(4-(3,3-dimethylureido)benzyl)-3-isopropyl-5-methyl-5,6,7,8-tetrahydroimidazo[1,5-a]pyrazine-1-carboxamide] | 13 nM | – | IC50 ([1]; human whole blood, 10 ng/mL IL13, 48 hours): 72 nM |
| CC(C)n1nc(C(=O)NCc2ccc(NC(=O)N3CCN(C)CC3)cc2)c2c1[C@@H](C)CN(c1ccc(-n3ccccc3=O)cn1)C2 [Example 609, (S)-1-isopropyl-7-methyl-N-(4-(4-methylpiperazine-1-carboxamido)benzyl)-5-(2-oxo-2H-[1,3′-bipyridin]-6′-yl)-4,5,6,7-tetrahydro-1H-pyrazolo[4,3-c]pyridine-3-carboxamide] | 1 nM | 7 nM | – |
